Measurements taken from US12012404B2, “Pyrimidoheterocyclic compounds and application thereof” (D3 BIO (WUXI) CO., LTD., priority 2020, dated 2024).

Test system: KRAS^G12C-mutated MIA-PA-CA-2 cells
Test: Inhibition of proliferation of KRAS^G12C-mutated MIA-PA-CA-2 cells (CellTiter-Glo, 72 h)
Assay type: cell-based, human
Details: Homo sapiens, MIA PaCa-2, 72 h incubation
Method: Compounds were assayed for IC50 of inhibition of proliferation of KRAS^G12C-mutated MIA-PA-CA-2 cells.
The main reagent used in this assay included CellTiter-Glo (Promega, Cat. No. G7573).
The main instrument used in this assay was PerkinElmer EnVision multi-function microplate reader.
1.4 Method of the Assay • 1) Adherent cells were digested with trypsin to form a cell suspension, and the cell suspension was counted for later use. • 2) An appropriate amount of cells was added into a centrifuge tube, and a cell culture medium was added to make up the required volume; then the cells were plated to a 96-well plate at a final density of 2000 cells/well, 100 μL of culture medium. • 3) After incubating for 24 hr, the compound was formulated to 10 mM with DMSO, and serially diluted 3-fold with DPBS (Dulbecco's Phosphate Buffered Saline) to 9 points; 10 μL was added to each well in duplicate. 10 μL of DPBS per well was added to the assay control wells (Con). • 4) On the same day, 50 μL of CellTiter Glo was added to another cell culture plate without compounds, and the fluorescence value was read by EnVision. […] The fluorescence value was read by EnVision. • 6) Data analysis: The inhibition rate of cells in each well was calculated according to the following equation: […]

## C=C(F)C(=O)N1CCN(c2nc(OC[C@@]34CCCN3C[C@H](F)C4)nc3c2COC(c2c(F)c(N)cc(C)c2C(F)(F)F)C3)C[C@@H]1CC#N (stereo partly shown) [Compound 17]
  IC50: 0.44 nM
